Source: patent US5441941A, “1,2-dihydroellipticines with activity against CNS specific cancer” (The United States of America as represented by the …, priority 1993, dated 1995)

How the values were obtained:
MOLT-4 = experiment: cells; details: Homo sapiens
LXFL 529 = experiment: cells; details: Homo sapiens
SW-620 = experiment: cells; details: Homo sapiens
786-0 = experiment: cells; details: Homo sapiens
CCRF-CEM = experiment: NCI in vitro screen, SRB percent growth, Leukemia
LOX IMVI = experiment: NCI in vitro screen, SRB percent growth, Melanoma
SK-MEL-5 = experiment: NCI in vitro screen, SRB percent growth, Melanoma
SF-268 = experiment: NCI in vitro screen, SRB percent growth, CNS Cancer
SF-539 = experiment: as above
SNB-19 = experiment: as above
SNB-75 = experiment: as above
SNB-78 = experiment: as above
COLO 205 = experiment: NCI in vitro screen, SRB percent growth, Colon Cancer
HCT-116 = experiment: as above
KM12 = experiment: as above
IGROV1 = experiment: NCI in vitro screen, SRB percent growth, Ovarian Cancer
CNS cancer cell lines = experiment: NCI in vitro screen, overall result on CNS cancer cell lines; details: Tables I and II
[1] = MOLT-4, read-out: Percent Growth
[2] = LXFL 529, read-out: Percent Growth
[3] = SW-620, read-out: Percent Growth
[4] = 786-0, read-out: Percent Growth
[5] = Log10 Concentration -4.0, 100 µM
[6] = Log10 Concentration -7.0, 0.1 µM

## COc1ccc2[nH]c3c(C)c4c(c(C)c3c2c1)CN(C)C=C4 [Formula VII]
MOLT-4; MOLT-4
  GI50: 0.3 µM
MOLT-4; MOLT-4, read-out: LC-50
  CC50: > 100 µM
MOLT-4; [1]
  activity at 0.01 µM: 110%
  activity at 0.1 µM: 68%
  activity at 1 µM: 30%
  activity at 10 µM: 8%
  activity at 100 µM: -27%
MOLT-4; MOLT-4, read-out: TGI
  IC (TGI): 16.7 µM
LXFL 529; LXFL 529
  GI50: 0.129 µM
LXFL 529; LXFL 529, read-out: LC-50
  CC50: 29.1 µM
LXFL 529; [2]
  activity at 0.01 µM: 66%
  activity at 0.1 µM: 54%
  activity at 1 µM: 14%
  activity at 10 µM: -38%
  activity at 100 µM: -64%
LXFL 529; LXFL 529, read-out: TGI
  IC (TGI): 1.88 µM
SW-620; SW-620
  GI50: 1.05 µM
SW-620; SW-620, read-out: LC-50
  CC50: > 100 µM
SW-620; [3]
  activity at 0.01 µM: 89%
  activity at 0.1 µM: 77%
  activity at 1 µM: 51%
  activity at 10 µM: 18%
  activity at 100 µM: -39%
SW-620; SW-620, read-out: TGI
  IC (TGI): 20.4 µM
786-0; 786-0
  GI50: 0.0408 µM
786-0; 786-0, read-out: LC-50
  CC50: 66.7 µM
786-0; [4]
  activity at 0.01 µM: 69%
  activity at 0.1 µM: 38%
  activity at 1 µM: 3%
  activity at 10 µM: -20%
  activity at 100 µM: -56%
786-0; 786-0, read-out: TGI
  IC (TGI): 1.3 µM
CCRF-CEM; [5]
  Percent Growth: -10%
CCRF-CEM; Log10 Concentration -5.0
  Percent Growth: 29%
CCRF-CEM; Log10 Concentration -6.0, 1 µM
  Percent Growth: 78%
CCRF-CEM; [6]
  Percent Growth: 92%
CCRF-CEM; PG=0
  TGI: 54.5 µM
CCRF-CEM; PG=+50
  GI50: 3.65 µM
CCRF-CEM; read-out: LC-50, PG=-50
  CC50: > 100 µM
LOX IMVI; [5]
  Percent Growth: -19%
LOX IMVI; Log10 Concentration -5.0
  Percent Growth: 58%
LOX IMVI; Log10 Concentration -6.0, 1 µM
  Percent Growth: 119%
LOX IMVI; Log10 Concentration -8.0
  Percent Growth: 129%
LOX IMVI; PG=0
  TGI: 56.9 µM
LOX IMVI; PG=+50
  GI50: 12.8 µM
LOX IMVI; read-out: LC-50, PG=-50
  CC50: > 100 µM
SK-MEL-5; [5]
  Percent Growth: -53%
SK-MEL-5; Log10 Concentration -5.0
  Percent Growth: -53%
SK-MEL-5; Log10 Concentration -6.0, 1 µM
  Percent Growth: 75%
SK-MEL-5; [6]
  Percent Growth: 94%
SK-MEL-5; Log10 Concentration -8.0
  Percent Growth: 99%
SK-MEL-5; PG=0
  TGI: 3.85 µM
SK-MEL-5; PG=+50
  GI50: 1.56 µM
SK-MEL-5; read-out: LC-50, PG=-50
  CC50: 9.49 µM
SF-268; [5]
  Percent Growth: -55%
SF-268; Log10 Concentration -5.0
  Percent Growth: -45%
SF-268; Log10 Concentration -6.0, 1 µM
  Percent Growth: 2%
SF-268; [6]
  Percent Growth: 76%
SF-268; Log10 Concentration -8.0
  Percent Growth: 91%
SF-268; PG=0
  TGI: 1.1 µM
SF-268; PG=+50
  GI50: 0.223 µM
SF-268; read-out: LC-50, PG=-50
  CC50: 35 µM
SF-539; [5]
  Percent Growth: -33%
SF-539; Log10 Concentration -5.0
  Percent Growth: -43%
SF-539; Log10 Concentration -6.0, 1 µM
  Percent Growth: 30%
SF-539; [6]
  Percent Growth: 99%
SF-539; Log10 Concentration -8.0
  Percent Growth: 116%
SF-539; PG=0
  TGI: 2.6 µM
SF-539; PG=+50
  GI50: 0.518 µM
SF-539; read-out: LC-50, PG=-50
  CC50: > 100 µM
SNB-19; [5]
  Percent Growth: 1%
SNB-19; Log10 Concentration -5.0
  Percent Growth: 0%
SNB-19; Log10 Concentration -6.0, 1 µM
  Percent Growth: 16%
SNB-19; [6]
  Percent Growth: 84%
SNB-19; Log10 Concentration -8.0
  Percent Growth: 95%
SNB-19; PG=0
  TGI: > 100 µM
SNB-19; PG=+50
  GI50: 0.318 µM
SNB-19; read-out: LC-50, PG=-50
  CC50: > 100 µM
SNB-75; [5]
  Percent Growth: -58%
SNB-75; Log10 Concentration -5.0
  Percent Growth: -78%
SNB-75; Log10 Concentration -6.0, 1 µM
  Percent Growth: -53%
SNB-75; [6]
  Percent Growth: 86%
SNB-75; Log10 Concentration -8.0
  Percent Growth: 126%
SNB-75; PG=0
  TGI: 0.416 µM
SNB-75; read-out: LC-50, PG=-50
  CC50: 0.953 µM
SNB-78; [5]
  Percent Growth: -26%
SNB-78; Log10 Concentration -5.0
  Percent Growth: -18%
SNB-78; Log10 Concentration -6.0, 1 µM
  Percent Growth: 41%
SNB-78; [6]
  Percent Growth: 98%
SNB-78; Log10 Concentration -8.0
  Percent Growth: 98%
SNB-78; PG=0
  TGI: 4.9 µM
SNB-78; PG=+50
  GI50: 0.683 µM
SNB-78; read-out: LC-50, PG=-50
  CC50: > 100 µM
COLO 205; [5]
  Percent Growth: -72%
COLO 205; [6]
  Percent Growth: 91%
COLO 205; Log10 Concentration -8.0
  Percent Growth: 99%
COLO 205; PG=0
  TGI: 5.6 µM
COLO 205; PG=+50
  GI50: 1.42 µM
COLO 205; read-out: LC-50, PG=-50
  CC50: 37.1 µM
HCT-116; [5]
  Percent Growth: -28%
HCT-116; Log10 Concentration -5.0
  Percent Growth: 29%
HCT-116; Log10 Concentration -6.0, 1 µM
  Percent Growth: 80%
HCT-116; [6]
  Percent Growth: 101%
HCT-116; Log10 Concentration -8.0
  Percent Growth: 106%
HCT-116; PG=0
  TGI: 32.2 µM
HCT-116; PG=+50
  GI50: 3.88 µM
HCT-116; read-out: LC-50, PG=-50
  CC50: > 100 µM
KM12; [5]
  Percent Growth: -86%
KM12; Log10 Concentration -6.0, 1 µM
  Percent Growth: 28%
KM12; [6]
  Percent Growth: 59%
KM12; Log10 Concentration -8.0
  Percent Growth: 78%
KM12; PG=0
  TGI: 2.32 µM
KM12; PG=+50
  GI50: 0.194 µM
KM12; read-out: LC-50, PG=-50
  CC50: 10.6 µM
IGROV1; [5]
  Percent Growth: -20%
IGROV1; Log10 Concentration -5.0
  Percent Growth: 14%
IGROV1; Log10 Concentration -6.0, 1 µM
  Percent Growth: 47%
IGROV1; [6]
  Percent Growth: 80%
IGROV1; Log10 Concentration -8.0
  Percent Growth: 105%
IGROV1; PG=0
  TGI: 25.3 µM
IGROV1; PG=+50
  GI50: 0.819 µM
IGROV1; read-out: LC-50, PG=-50
  CC50: > 100 µM
CNS cancer cell lines
  effect against CNS cancer cell lines: particularly effective against CNS cancer cell lines
